Consider 2 compounds from patent US8591935B2, “Methods and compositions for treating pain comprising a statin” (Warsaw Orthopedic, Inc., priority 2008, dated 2013).

In assay [1] the test system is chronic constriction injury (CCI) rats. As to the kind of experiment: Thermal hyperalgesia: paw withdrawal latency to thermal radiant heat (Hargreaves test) in the chronic constriction injury model. In kind it is in vivo, Wister rats. How it is done:
This model may mimic pain associated with sciatica in humans. Twenty-eight male Wister rats (Charles River Laboratories, Wilmington, Mass.) weighing 300±26 g the day of surgery (Day 1) were used in this study. All experiments were conducted in accordance with the International Association for the Study of Pain guidelines and approved by the Institutional Animal Care and Use Committee at SRI International, Inc (Menlo Park, Calif.). CCI was induced according to the method of Bennett and Xie. Briefly, each animal was anesthetized by intraperitoneal (IP) injection of sodium pentobarbital at a dose of 60 mg/kg. The animal's common sciatic nerve was exposed and freed from adherent tissue at mid-thigh by separating the biceps femoris muscles by blunt dissection. Four loose ligatures were placed 1 mm apart, using chromic gut suture (4-0 absorbable suture; Jorgensen Laboratories, Inc., Loveland, Colo.). Seven animals were randomly assigned to each treatment group. […] The radiant infrared heat source stimulus intensity was set to IR50 and the cut-off time was set at 15 seconds. Rats were placed on a glass platform and allowed to habituate to the testing chambers for a minimum of 15 minutes prior to each testing session. The thermal stimulus was applied to the plantar surface of the paw. Thermal thresholds were defined as the latency in seconds at the first pain behavior, which includes paw withdrawal, flinching, biting and/or licking of the stimulated paw. The readings for all animals were averaged and the mean and standard error of the mean (SEM) were determined for each treatment group.

For assay [2] the test system is unchanged. Description: Mechanical allodynia: von Frey monofilament test in the chronic constriction injury model. In kind it is in vivo, Wister rats. How it is done: This model may mimic pain associated with sciatica in humans. Twenty-eight male Wister rats (Charles River Laboratories, Wilmington, Mass.) weighing 300±26 g the day of surgery (Day 1) were used in this study. All experiments were conducted in accordance with the International Association for the Study of Pain guidelines and approved by the Institutional Animal Care and Use Committee at SRI International, Inc (Menlo Park, Calif.). CCI was induced according to the method of Bennett and Xie. Briefly, each animal was anesthetized by intraperitoneal (IP) injection of sodium pentobarbital at a dose of 60 mg/kg. The animal's common sciatic nerve was exposed and freed from adherent tissue at mid-thigh by separating the biceps femoris muscles by blunt dissection. Four loose ligatures were placed 1 mm apart, using chromic gut suture (4-0 absorbable suture; Jorgensen Laboratories, Inc., Loveland, Colo.). Seven animals were randomly assigned to each treatment group. Mechanical allodynia was measured using von Frey monofilaments (Stoelting, Wood Dale, Ill.) with varying stiffness (2.0-15.0 g) on Days −1 (baseline), 8, and 15 as described previously. Animals were placed on a perforated metallic platform and allowed to habituate to their surroundings for a minimum of 15 minutes before testing. The 50% paw withdrawal threshold response was determined by a sequential increasing and/or decreasing of the stimulus strength (the “up-down method” of Dixon). Each filament was applied with enough pressure to cause a buckling effect. Absence of a paw lifting/withdrawal response after 5 seconds prompted the use of the filament of next higher weight. Paw withdrawal indicating a positive response prompted the use of a weaker filament. After the initial response (i.e., paw withdrawal), the testing continued for four additional measurements and was used to calculate the response threshold. Four consecutive positive responses received a score of 0.25 g, and five consecutive negative responses (i.e., no paw withdrawal) received a score of 15 g. The 50% paw withdrawal threshold was calculated using the formula: 10 (Xf+kd)/10,000, where Xf is the final von Frey filament used (log units), k is a value that analyzes the response pattern (taken from the table published by Chaplan et al.), and d is the mean difference between stimuli (log units). The mean and standard error of the mean (SEM) were determined for each treatment group.

[3] abbreviates: lovastatin 0.3 mg/kg/day IP for 15 days, CCI rats.
The mark [4] stands for this setting: lovastatin 3 mg/kg/day IP for 15 days, CCI rats.
The mark [5] stands for this setting: sulindac 2 mg/kg/day IP for 15 days, CCI rats.

`CC[C@H](C)C(=O)O[C@H]1C[C@@H](C)C=C2C=C[C@H](C)[C@H](CC[C@@H]3C[C@@H](O)CC(=O)O3)[C@H]21` [lovastatin]: the “thermal hyperalgesia withdrawal score, course over the study” value in assay [1] (high dose lovastatin pump group, 0.4 mcg/hr) was “steadily improved during the course of the study”. The “thermal hyperalgesia withdrawal score compared with other statin groups” value in assay [1] (high dose lovastatin pump group, 0.4 mcg/hr, day 21) was “statistically equivalent to the other two statin groups”. The “pain reduction, paw withdrawal latency to thermal radiant heat vs PBS vehicle” value in assay [1] (setting [3]) is listed as “effective at reducing pain”; in assay [1] (setting [4]), “effective at reducing pain”; in assay [1] (lovastatin 3 mg/kg/day IP, at day 14), “particularly effective”. The “thermal withdrawal time as % of per-operative baseline” value in assay [1] (lovastatin 0.3 mg/kg/day IP, Day 7) is on record as 68%; in assay [1] (lovastatin 0.3 mg/kg/day IP, days 14 and 21), 61%. Further, the “thermal hyperalgesia pain behavioral response vs 50:50 DMSO/PBS vehicle” value in assay [1] (lovastatin 0.3 mg/kg/day IP, all days tested) was “reduced this pain behavioral response at all days tested”. For the same compound, the “thermal withdrawal scores as % of baseline” value in assay [1] (low dose lovastatin group (100-fold decrease from 0.3 mg/kg/day), all testing days) is approximately 60%. Also, the “mechanical allodynia pain behavioral response compared with the 0.3 mg/kg/day group” value in assay [2] (lovastatin 40 ng/hr group) is given as “probably statistically equivalent”. In addition, the “pain reduction, von Frey paw withdrawal threshold (mechanical stimulation) vs PBS vehicle” value in assay [2] (setting [3]) is recorded as “effective at reducing pain”; in assay [2] (setting [4]), “effective at reducing pain”; in assay [2] (lovastatin 3 mg/kg/day IP, at day 15), “particularly effective”. Moreover, in assay [2] (lovastatin 0.3 mg/kg/day, all time points), the “mechanical allodynia pain behavioral response” value is “able to reduce this pain behavioral response at all time points”. Further, the “mechanical allodynia pain response compared with 50:50 DMSO/PBS vehicle control” value in assay [2] (lovastatin 0.4 mcg/hr) was “probably statistically equivalent to the vehicle control”.

As for `CC1=C(CC(=O)O)c2cc(F)ccc2/C1=C\c1ccc([S+](C)[O-])cc1` (stereo not shown) [sulindac], the “pain reduction, paw withdrawal latency to thermal radiant heat vs PBS vehicle” value is given as “effective at reducing pain” in assay [1] (setting [5]); “particularly effective” in assay [1] (sulindac 2 mg/kg/day IP, at 7 and 14 days). For the same compound, the “pain reduction, von Frey paw withdrawal threshold (mechanical stimulation) vs PBS vehicle” value is “effective at reducing pain” in assay [2] (setting [5]); “particularly effective” in assay [2] (sulindac 2 mg/kg/day IP, at 8 and 15 days).
